Reference: US20220211654A1, “MATERIALS AND METHODS FOR TREATING AGE-RELATED MACULAR DEGENERATION” (THE REGENTS OF THE UNIVERSITY OF CALIFORNIA, priority 2019, published 2022)

What was measured:
[1] = test system: AMD ARPE-19 transmitochondrial cybrid cells; assay: Mitochondrial membrane potential (JC-1) assay; type: cell-based, human; details: AMD cybrids; fenofibrate 50 μM; compared to untreated
Method: Mitochondrial membrane potential (JC-1) assay: The JC-1 assay uses a unique cationic dye i.e., 5,5′,6,6′-tetrachloro-1,1′,3,3′-tetraethylbenzimidazolylcarbocyanine iodide, to detect loss of mitochondrial membrane potential. JC-1 1× reagent was prepared by diluting 100× JC-1 reagent in assay buffer to 1:100 dilutions. […] 1× JC-1 reagent was added to cells and incubated for 15 min at 37° C. JC-1 reagent in the wells was then replaced with DPBS and fluorescence was measured as follows: Red fluorescence (Live cells): Excitation 550 nm and Emission 600 nm; Green fluorescence (Apoptotic cells): Excitation 485 nm and Emission 535 nm. Ratio of Red/Green was used for analysis. Lower ratio corresponded to higher apoptotic/dead cell number.

[2] = test system: AMD ARPE-19 transmitochondrial cybrid cells; assay: MitoSOX assay (mitochondrial superoxide); type: cell-based, human; details: AMD cybrids, fenofibrate 50 μM
Method: MitoSOX assay: The fluorogenic MitoSOX Red dye (Cat. #M36008, Invitrogen, Grand Island, N.Y., USA) is a live-cell permeant reagent that detects mitochondrial superoxide in cells. MitoSOX Red reagent oxidized by superoxide has red fluorescence that can be quantified. AMD cybrids were plated in 24-well tissue culture plates. Stock solution of 5 mM MitoSOX reagent was diluted with HBSS (Hank's balanced salt solution) buffer to obtain a 5 μM working solution. Cells were treated with 5 μM MitoSOX reagent and incubated for 10 min at 37° C. Cells were then washed with HBSS buffer, and fluorescence was measured at excitation/emission maxima of 510/580 nm.

[3] = test system: AMD ARPE-19 transmitochondrial cybrid cells; assay: CellLight Mitochondrial GFP staining and confocal microscopy; type: cell-based, human; details: fenofibrate 50 μM
Method: CellLight Mitochondrial GFP staining and Confocal microscopy: Staining with CellLight Mitochondrial GFP probe (Cat. #C10600, Thermo Fisher Scientific, MA, USA) and confocal microscopy were performed as described previously (74). Cells were plated in 4-well tissue culture chamber slides, stained with CellLight mtGFP for 24 hr and incubated overnight at 37° C. The cells were washed with 1×TBS (Tris buffered saline), fixed in paraformaldehyde and mounted in DAPI. Confocal z-stack images were captured using the LSM-700 Confocal microscope (Zeiss, Thornwood, N.Y., USA). Images were quantified using ZEN 2 lite software (Zeiss).
RPE cells were transduced with CellLight reagent which is a GFP-E1 alpha pyruvate dehydrogenase leader peptide construct with a mammalian promoter. This fluorescent baculoviral fusion construct provides precise targeting to mitochondria.

[4] = test system: AMD ARPE-19 transmitochondrial cybrid cells; assay: Cell viability assay (MTT assay); details: for cell viability, Mean ± SEM: AMD UN = 1
Method: All cybrids used in this study belonged to the ‘H’ mitochondrial DNA haplogroup. […] Stock solutions of 20 mM kaempferol and 10 mM telmisartan were prepared in DMSO and were diluted in culture media to obtain the following working concentrations: kaempferol at 5 μM, 10 μM, and 20 μM; telmisartan at 2.5 μM, 5 μM, and 10 μM. Cell viability assay (MTT assay): The numbers of viable cells were measured using the MTT (3-(4,5-dimethylthiazol-2-yl)-2,5-diphenyltetrazolium bromide) assay. […] Cells were incubated at 37° C. for 1 h, followed by addition of DMSO. Absorbance was measured at 570 nm and background absorbance measured at 630 nm. Normalized absorbance values were obtained by subtracting background absorbance from signal absorbance. The colorimetric signal obtained was proportional to the cell number.

SOD2 = assay: qRT-PCR gene expression of SOD2 in AMD RPE cybrid cells; type: cell-based, human; details: 72 hr, AMD UN = 1
Method: (§1) Quantitative Real-Time PCR: RNA extraction, cDNA synthesis, and qRT-PCR analysis were performed as described previously (73). QuantiTect Primer Assays were used to study the expression of Caspase-3 gene (Cat. #QT00023947, Qiagen, Germantown, Md.), BAX gene (Cat. #QT00031192, Qiagen), HIF1α gene (Cat. #QT00083664, Qiagen), CFH gene (Cat. #QT00001624, Qiagen), and SOD2 gene (Cat. #QT01008693, Qiagen). KiCqStart® SYBR® green primers were used to examine the expression of PGC-1a, NRF-1, NRF-2, PPAR-α, PPAR-γ, VEGF, IL-18, and IFNB1 genes (Cat. #kspq12012, Sigma, St. Louis, Mo.). Specific housekeeper genes used were HPRT1 (Cat. #QT00059066, Qiagen), ALAS variant 1 (Cat. #QT01160467, Qiagen), and HMBS (Cat. #QT00014462). TaqMan gene expression master mix (Cat. #4369016, Life Technologies) and TaqMan gene expression assays were used to examine the expression of the MT-RNR2 gene (Assay ID: Hs02596860_s1, Life Technologies), for which GAPDH (Assay ID: Hs02786624_g1, Life Technologies) was used as a housekeeper gene. Data analysis was performed using ΔΔCt method which was calculated by subtracting ΔCt of the AMD group from ΔCt of the normal group. ΔCt was the difference between the Cts (threshold cycles) of the target gene and Cts of the housekeeper gene (reference gene). Fold change was calculated using the following formula: Fold change=2^ΔΔct.

VEGF = assay: qRT-PCR gene expression of VEGF in AMD RPE cybrid cells; type: cell-based, human; details: 72 hr; for VEGF gene expression, Mean ± SEM: AMD UN = 1
Method: as §1

esterase = assay: fenofibrate to fenofibrate* conversion (first pass) and its block by esterase inhibitors; details: co-administered with fenofibrate
IL-18 = assay: qRT-PCR gene expression of IL-18 in AMD RPE cybrid cells; type: cell-based, human; details: 72 hr, AMD UN = 1
Method: as §1

PGC-1α = assay: qRT-PCR gene expression of PGC-1α in AMD RPE cybrid cells; type: cell-based, human; details: 72 hr, AMD UN = 1
Method: as §1

Caspase-3 = assay: qRT-PCR gene expression of Caspase-3 in AMD RPE cybrid cells; type: cell-based, human; details: 72 hr; for Caspase-3 gene expression, Mean ± SEM: AMD UN = 1
Method: as §1

[5] = only kaempferol 20 μM, compared to untreated AMD cybrids

CC(C)OC(=O)C(C)(C)Oc1ccc(C(=O)c2ccc(Cl)cc2)cc1 [fenofibrate]
increased mitochondrial membrane potential (JC-1 assay) [1]: 116%
mitochondrial superoxides, MitoSOX fluorescence (mean±SEM) ([2]; AMD UN = 1): 0.77±0.04
lower amount of mitochondrial superoxides (MitoSOX assay) ([2]; compared to untreated): 23%
mtGFP fluorescence intensity (mean±SEM) ([3]; AMD UN = 1): 2.73±0.39
increase in mtGFP fluorescence intensity ([3]; compared to untreated): 173%
cell viability, Mean ± SEM ([4]; 48 hr, fenofibrate 50 μM only): 1.33 ± 0.09
cell viability, Mean ± SEM ([4]; 72 hr, fenofibrate 50 μM only): 1.37 ± 0.07
higher cell viability ([4]; AMD cells, fenofibrate 50 μM, compared to untreated): 51%

O=c1c(O)c(-c2ccc(O)cc2)oc2cc(O)cc(O)c12 [kaempferol, 3,5,7-trihydroxy-2-(4-hydroxyphenyl)-4H-1-benzopyran-4-one]
SOD2 gene expression, Mean ± SEM (SOD2; kaempferol 20 μM only): 0.88 ± 0.22
VEGF gene expression, Mean ± SEM (VEGF; kaempferol 20 μM only): 0.42 ± 0.16
VEGF downregulation (VEGF; [5]): 58%
block of conversion of fenofibrate to fenofibrate* (esterase): largely block conversion to fenofibrate*
IL-18 gene expression, Mean ± SEM (IL-18; kaempferol 20 μM only): 0.78 ± 0.13
PGC-1a gene expression, Mean ± SEM (PGC-1α; kaempferol 20 μM only): 1.82 ± 0.57
Caspase-3 gene expression, Mean ± SEM (Caspase-3; kaempferol 20 μM only): 0.74 ± 0.045
Caspase-3 downregulation (Caspase-3; [5]): 26%
cell viability, Mean ± SEM ([4]; 48 hr, kaempferol 20 μM only): 1.037 ± 0.1413
cell viability, Mean ± SEM ([4]; 72 hr, kaempferol 20 μM only): did not show any difference in cell viability
cell viability, Mean ± SEM ([4]; 72 hr, kaempferol 20 μM only, listed as kempferol): 1.259 ± 0.1060

CCCc1nc2c(C)cc(-c3nc4ccccc4n3C)cc2n1Cc1ccc(-c2ccccc2C(=O)O)cc1 [telmisartan]
SOD2 gene expression, Mean ± SEM (SOD2; telmisartan 10 μM only): 1.71 ± 0.46
VEGF gene expression, Mean ± SEM (VEGF; telmisartan 10 μM only): 0.52 ± 0.19
block of conversion of fenofibrate to fenofibrate* (esterase): largely block conversion to fenofibrate*
IL-18 gene expression, Mean ± SEM (IL-18; telmisartan 10 μM only): 0.71 ± 0.25
PGC-1a gene expression, Mean ± SEM (PGC-1α; telmisartan 10 μM only): 1.40 ± 0.48
Caspase-3 gene expression, Mean ± SEM (Caspase-3; telmisartan 10 μM only): 0.86 ± 0.06
cell viability, Mean ± SEM ([4]; 48 hr, telmisartan 10 μM only): 0.95 ± 0.11
cell viability, Mean ± SEM ([4]; 72 hr, telmisartan 10 μM only): 0.99 ± 0.09
